Key:
Assay type in all cases: in vivo
[1] = tested on: Stagonosporopsis cucurbitacearum; test: Field assessment of Stagonosporopsis cucurbitacearum (DIDYBR) on watermelon; details: 10% SC; for Percent control based on AUDPC, DIDYBR, adjuvant II: Agnique BP420 (50% w/w at 0.3% v/v)
Description: Field Assessment of Stagonosporopsis Cucurbitacearum (DIDYBR) on Watermelon:
A 10% SC formulation of compound I was tanked mixed with four different adjuvants: Agnique BP420 (50% w/w at 0.3% v/v); Trycol (50% w/w at 0.1% v/v); Ethomeen T18H (50% w/w at 0.2% v/v); and Phase II (50% w/w at 0.2% v/v). A fungicidal treatment containing formulations of compound I, either alone or with adjuvants, was sprayed on watermelon plants four times, the first application approximately 2 months after planting, with the following three applications in 7-10 day intervals. Formulations of compound I were applied at rates of 50, 100, 150 and 200 grams of active ingredient per hectare (g ai/ha). The experimental plots were inoculated with the gummy stem blight pathogen 2 days after the first application. The treatment was part of an experimental trial designed as a randomized complete block with four replications and a plot of approximately 2.5×1.4 m. Formulations of compound I were applied at water volume of 675 L/ha.
Disease severity was recorded as the length of stem lesion and as percent area diseased foliage (3 random plants per plot). Watermelon gummy stem blight infection was assessed twice, the first at 6 days after the first application (6 DAAA), followed by 19 DAAD. Area under the disease progress curve (AUDPC) was calculated for each plot using the sets of recorded severity data. Relative AUDPC (% control based on AUDPC) was calculated as percent of the nontreated control.

Alternaria solani = test: Field assessment of Alternaria solani (ALTESO) on tomato, trial 2 (natural disease pressure); details: for Percent disease control on tomato leaves, Trial 2, 5% EC: 5% EC + Agnique BP420; for Percent disease control on tomato leaves, Trial 2, 10% SC: 10% SC + Agnique BP420
Description: Field Assessment of Alternaria solani (ALTESO) on Tomato:
In a replicated trial, a fungicidal treatment containing Compound I, applied in both a 5% EC and 10% SC formulation and tank mixed with an adjuvant (Agnique BP420, 50% w/w at 0.3% v/v), was sprayed on tomato plants (LYPES, Taylor variety) at approximately 21 days after planting. Formulations of compound I was applied at rates of 100 and 200 grams of active ingredient per hectare (g ai/ha). The trial was based on six foliar applications at 10 day intervals under natural disease pressure of tomato early blight. The treatment was part of an experimental trial designed as a randomized complete block with four replications and a plot of approximately 2×4 m. Formulations of compound I were applied at water volume of 800 L/ha, using a backpack plot sprayer (BKPCKENG, Solo 443; HCSOLID—Albutz ATR80 Orange Nozzle) and pressurized at 300 kPa. Disease severity (percent control) was recorded as percent visual leaf infection per plot and was assessed at 10 days after the last application.

Colletotrichum capsici = test: Field assessment of Colletotrichum capsici (COLLCA) on hot peppers, 2 day protectant; details: 5% EC + Trycol, hot pepper
Method: Field Assessment of Colletotrichum capsici (COLLCA) on Hot Peppers:
Assessment of compound I of COLLCA on hot peppers, in both protectant and curative fashion, was performed in two separate field trials. For the 2 day protectant test, a fungicidal treatment containing a 5% EC formulation of compound I plus an adjuvant (Trycol, 50% w/w at 0.2% v/v), was sprayed on hot pepper plants (CPSAN) three times, the first application at the flowering and fruiting stage 43 days after planting, with the following applications in 7 day intervals. Formulations of compound I were applied at rates of 50, 100, and 150 grams of active ingredient per hectare (g ai/ha). The experimental plots were inoculated with the anthracnose pathogen 2 days after the first application. The treatment was part of an experimental trial designed as a randomized complete block with four replications and a plot of approximately 2×1 m, with formulations of compound I being applied at water volume of 1000 L/ha.
Disease severity was assessed as the percent fruit area diseased per plant (6 plants per plot randomly). Anthracnose infection was assessed four times, 7 days after application A (DAAA), 7 DAAB, plus 7 and 14 DAAC. Area under the disease progress curve (AUDPC) was calculated for each plot using the sets of recorded visual infection data. Relative AUDPC (% control based on AUDPC) was calculated as percent of the nontreated control.

Erysiphe cichoracearum = test: Field assessment of Erysiphe cichoracearum (ERYSCI) on cucumber, 2 day protectant; details: 5% EC + Trycol
Method: Field Assessment of Erysiphe Cichoracearum (ERYSCI) on Cucumber:
Assessment of compound I of ERYSCI on cucumbers, in both protectant and curative fashion, was performed in two separate field trials. For the two day protectant test (2DP), a fungicidal treatment containing a 5% EC formulation of compound I plus an adjuvant (Trycol, 50% w/w at 0.2% v/v), was sprayed on cucumber plants (CUMSA) twice, the first application at the fruiting stage 41 days after planting, with the following application after 7 days. Formulations of compound I were applied at rates of 50, 100, and 150 grams of active ingredient per hectare (g ai/ha). The experimental plots were inoculated with the powdery mildew pathogen 2 days after the first application. The treatment was part of an experimental trial designed as a randomized complete block with four replications and a plot of approximately 2×1 m, with formulations of compound I being applied at water volume of 1200 L/ha based on seedling sizes.
Disease severity was assessed as percent diseased area of cucumber foliage per plant (6 plants per plot randomly). Cucumber powdery mildew infection was assessed three times, 7 days after application A (DAAA), and 7 and 14 DAAB. Area under the disease progress curve (AUDPC) was calculated for each plot using the sets of recorded visual infection data. Relative AUDPC (% control based on AUDPC) was calculated as percent of the nontreated control.

## COc1ccnc(C(=O)N[C@@H](C)C(=O)O[C@@H](C)C(c2ccc(F)cc2)c2ccc(F)cc2)c1OC(C)=O [Compound I, (S)-1,1-bis(4-fluorophenyl)propan-2-yl (3-acetoxy-4-methoxypicolinoyl)-L-alaninate]
[1]; 50 g ai/ha
  Percent control based on AUDPC, DIDYBR, adjuvant II: A (76-100)
[1]; 100 g ai/ha
  Percent control based on AUDPC, DIDYBR, adjuvant II: A (76-100)
[1]; 100 g ai/ha, Ethomeen T18H (50% w/w at 0.2% v/v)
  Percent control based on AUDPC, DIDYBR, adjuvant IV: B (51-75)
[1]; 100 g ai/ha, Phase II (50% w/w at 0.2% v/v)
  Percent control based on AUDPC, DIDYBR, adjuvant V: B (51-75)
[1]; 100 g ai/ha, Trycol (50% w/w at 0.1% v/v)
  Percent control based on AUDPC, DIDYBR, adjuvant III: B (51-75)
[1]; 100 g ai/ha, no adjuvant
  Percent control based on AUDPC, DIDYBR, adjuvant I: B (51-75)
[1]; 150 g ai/ha
  Percent control based on AUDPC, DIDYBR, adjuvant II: A (76-100)
[1]; 200 g ai/ha
  Percent control based on AUDPC, DIDYBR, adjuvant II: A (76-100)
Alternaria solani; 100 g ai/ha
  Percent disease control on tomato leaves, Trial 2, 5% EC: A (76-100)
  Percent disease control on tomato leaves, Trial 2, 10% SC: A (76-100)
Alternaria solani; 200 g ai/ha
  Percent disease control on tomato leaves, Trial 2, 5% EC: A (76-100)
  Percent disease control on tomato leaves, Trial 2, 10% SC: A (76-100)
Colletotrichum capsici; 50 g ai/ha
  Percent control based on AUDPC, COLLCA 2 DP: A (76-100)
Colletotrichum capsici; 100 g ai/ha
  Percent control based on AUDPC, COLLCA 2 DP: A (76-100)
Colletotrichum capsici; 150 g ai/ha
  Percent control based on AUDPC, COLLCA 2 DP: A (76-100)
Erysiphe cichoracearum; 50 g ai/ha
  Percent control based on AUDPC, ERYSCI 2 DP: A (76-100)
Erysiphe cichoracearum; 100 g ai/ha
  Percent control based on AUDPC, ERYSCI 2 DP: A (76-100)
Erysiphe cichoracearum; 150 g ai/ha
  Percent control based on AUDPC, ERYSCI 2 DP: A (76-100)
